# In ChEMBL document CHEMBL1129116, “Synthesis of cephems bearing olefinic sulfoxide side chains as potential -lactamase inhibitors” (1996):
# Experiments:
# Assay type in all cases: functional
# Staphylococcus aureus [1] = assay: Antibacterial activity of compound was measured against Staphylococcus aureus A9537 organism
# Staphylococcus aureus [2] = assay: Antibacterial activity of compound was measured against Staphylococcus aureus (MR) A20699 organism
# Escherichia coli = assay: Antibacterial activity of compound was measured against Escherichia coli A15119 organism
# Klebsiella pneumoniae = assay: Antibacterial activity of compound was measured against Klebsiella pneumoniae A9432 organism
# Staphylococcus aureus [3] = assay: Antibacterial activity of compound was measured against Staphylococcus aureus (MR) CEF1198 organism
Compound,MIC (Staphylococcus aureus [1]) [µg/mL],MIC (Staphylococcus aureus [2]) [µg/mL],MIC (Escherichia coli) [µg/mL],MIC (Klebsiella pneumoniae) [µg/mL],MIC (Staphylococcus aureus [3]) [µg/mL]
C[S+]([O-])/C=C/C1=C(C(=O)O)N2C(=O)[C@@H](NC(=O)Cc3cccs3)[C@H]2SC1 (some centres undefined),0.03,16,1,0.5,4
CS(=O)(=O)/C=C/C1=C(C(=O)O)N2C(=O)[C@@H](NC(=O)Cc3cccs3)[C@H]2SC1,0.06,4,0.5,0.5,0.5
O=C(Cc1cccs1)N[C@@H]1C(=O)N2C(C(=O)O)=C(/C=C/[S+]([O-])c3ccc([N+](=O)[O-])cc3)CS[C@H]12 (some centres undefined),0.5,64,64,64,
Cc1ccc([S+]([O-])/C=C/C2=C(C(=O)O)N3C(=O)[C@@H](NC(=O)Cc4cccs4)[C@H]3SC2)cc1 (some centres undefined),0.25,16,4,2,8
COc1cccc(OC)c1C(=O)N[C@@H]1C(=O)N2[C@@H]1SC(C)(C)[C@@H]2C(=O)O [METHICILLIN],0.5,32,> 128,> 128,32
